{"source": "ChEMBL document CHEMBL1201862", "about": "“PubChem BioAssay data set” (2004)", "assay_in_all_cases": "NCI tumour cell line growth inhibition, 48 h", "key": {"786-0": {"tested_on": "786-0"}, "A498": {"tested_on": "A498"}, "A549": {"tested_on": "A549"}, "ACHN": {"tested_on": "ACHN"}, "CAKI-1": {"tested_on": "CAKI-1"}, "CCRF-CEM": {"tested_on": "CCRF-CEM"}, "COLO 205": {"tested_on": "COLO 205"}, "DLD-1": {"tested_on": "DLD-1"}, "DMS-114": {"tested_on": "DMS-114"}, "DMS-273": {"tested_on": "DMS-273"}, "EKVX": {"tested_on": "EKVX"}, "HCC 2998": {"tested_on": "HCC 2998"}, "HCT-116": {"tested_on": "HCT-116"}, "HCT-15": {"tested_on": "HCT-15"}, "HL-60": {"tested_on": "HL-60"}, "HOP-18": {"tested_on": "HOP-18"}, "HOP-62": {"tested_on": "HOP-62"}, "HT-29": {"tested_on": "HT-29"}, "IGROV-1": {"tested_on": "IGROV-1"}, "K562": {"tested_on": "K562"}, "KM-20L2": {"tested_on": "KM-20L2"}, "KM12": {"tested_on": "KM12"}, "LOX IMVI": {"tested_on": "LOX IMVI"}, "LXFL 529": {"tested_on": "LXFL 529"}, "M14": {"tested_on": "M14"}, "M19-MEL": {"tested_on": "M19-MEL"}, "MOLT-4": {"tested_on": "MOLT-4"}, "Malme-3M": {"tested_on": "Malme-3M"}, "NCI-H226": {"tested_on": "NCI-H226"}, "NCI-H460": {"tested_on": "NCI-H460"}, "NCI-H522": {"tested_on": "NCI-H522"}, "OVCAR-3": {"tested_on": "OVCAR-3"}, "OVCAR-4": {"tested_on": "OVCAR-4"}, "OVCAR-8": {"tested_on": "OVCAR-8"}, "RPMI-8226": {"tested_on": "RPMI-8226"}, "RXF 393": {"tested_on": "RXF 393"}, "RXF 631": {"tested_on": "RXF 631"}, "SF-268": {"tested_on": "SF-268"}, "SF-295": {"tested_on": "SF-295"}, "SF-539": {"tested_on": "SF-539"}, "SK-MEL-28": {"tested_on": "SK-MEL-28"}, "SK-MEL-2": {"tested_on": "SK-MEL-2"}, "SK-MEL-5": {"tested_on": "SK-MEL-5"}, "SK-OV-3": {"tested_on": "SK-OV-3"}, "SN12C": {"tested_on": "SN12C"}, "SNB-19": {"tested_on": "SNB-19"}, "SNB-75": {"tested_on": "SNB-75"}, "SNB-78": {"tested_on": "SNB-78"}, "SW-620": {"tested_on": "SW-620"}, "U-251": {"tested_on": "U-251"}, "UACC-257": {"tested_on": "UACC-257"}, "UACC-62": {"tested_on": "UACC-62"}, "UO-31": {"tested_on": "UO-31"}}, "note": "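The compound was tested at five concentrations on cells cultured in 96-well plates, with a 48-hour exposure period. GI50: concentration for 50% inhibition of growth.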 Active and inactive are the calls of the source. Rule as the data show it: active = GI50 up to about 1.1 µM and inactive = higher.", "data": [{"smiles": "O=C(NCCCN1CCN(CCCNC(=O)c2cnc3ccccc3n2)CC1)c1cnc2ccccc2n1", "values": [{"measurement": "GI50", "setting": "786-0", "value": "> 100 µM (inactive)"}, {"measurement": "GI50", "setting": "A498", "value": "82 µM (inactive)"}, {"measurement": "GI50", "setting": "A549", "value": "> 100 µM (inactive)"}, {"measurement": "GI50", "setting": "ACHN", "value": "74.1 µM (inactive)"}, {"measurement": "GI50", "setting": "CAKI-1", "value": "> 100 µM (inactive)"}, {"measurement": "GI50", "setting": "CCRF-CEM", "value": "> 100 µM (inactive)"}, {"measurement": "GI50", "setting": "COLO 205", "value": "> 100 µM (inactive)"}, {"measurement": "GI50", "setting": "DLD-1", "value": "> 100 µM (inactive)"}, {"measurement": "GI50", "setting": "DMS-114", "value": "70.1 µM (inactive)"}, {"measurement": "GI50", "setting": "DMS-273", "value": "> 100 µM (inactive)"}, {"measurement": "GI50", "setting": "EKVX", "value": "> 100 µM (inactive)"}, {"measurement": "GI50", "setting": "HCC 2998", "value": "> 100 µM (inactive)"}, {"measurement": "GI50", "setting": "HCT-116", "value": "44.8 µM (inactive)"}, {"measurement": "GI50", "setting": "HCT-15", "value": "> 100", "unit": "µM"}, {"measurement": "GI50", "setting": "HL-60", "value": "> 100 µM (inactive)"}, {"measurement": "GI50", "setting": "HOP-18", "value": "> 100 µM (inactive)"}, {"measurement": "GI50", "setting": "HOP-62", "value": "> 100 µM (inactive)"}, {"measurement": "GI50", "setting": "HT-29", "value": "88.3 µM (inactive)"}, {"measurement": "GI50", "setting": "IGROV-1", "value": "> 100 µM (inactive)"}, {"measurement": "GI50", "setting": "K562", "value": "> 100 µM (inactive)"}, {"measurement": "GI50", "setting": "KM-20L2", "value": "> 100 µM (inactive)"}, {"measurement": "GI50", "setting": "KM12", "value": "> 100 µM (inactive)"}, {"measurement": "GI50", "setting": "LOX IMVI", "value": "76.6 µM (inactive)"}, {"measurement": "GI50", "setting": "LXFL 529", "value": "> 100 µM (inactive)"}, {"measurement": "GI50", "setting": "M14", "value": "> 100 µM (inactive)"}, {"measurement": "GI50", "setting": "M19-MEL", "value": "> 100 µM (inactive)"}, {"measurement": "GI50", "setting": "MOLT-4", "value": "44.8 µM (inactive)"}, {"measurement": "GI50", "setting": "Malme-3M", "value": "> 100 µM (inactive)"}, {"measurement": "GI50", "setting": "NCI-H226", "value": "86.5 µM (inactive)"}, {"measurement": "GI50", "setting": "NCI-H460", "value": "> 100 µM (inactive)"}, {"measurement": "GI50", "setting": "NCI-H522", "value": "90.8 µM (inactive)"}, {"measurement": "GI50", "setting": "OVCAR-3", "value": "> 100 µM (inactive)"}, {"measurement": "GI50", "setting": "OVCAR-4", "value": "> 100 µM (inactive)"}, {"measurement": "GI50", "setting": "OVCAR-8", "value": "> 100 µM (inactive)"}, {"measurement": "GI50", "setting": "RPMI-8226", "value": "> 100 µM (inactive)"}, {"measurement": "GI50", "setting": "RXF 393", "value": "> 100 µM (inactive)"}, {"measurement": "GI50", "setting": "RXF 631", "value": "> 100 µM (inactive)"}, {"measurement": "GI50", "setting": "SF-268", "value": "> 100 µM (inactive)"}, {"measurement": "GI50", "setting": "SF-295", "value": "> 100 µM (inactive)"}, {"measurement": "GI50", "setting": "SF-539", "value": "> 100 µM (inactive)"}, {"measurement": "GI50", "setting": "SK-MEL-28", "value": "> 100 µM (inactive)"}, {"measurement": "GI50", "setting": "SK-MEL-2", "value": "> 100 µM (inactive)"}, {"measurement": "GI50", "setting": "SK-MEL-5", "value": "> 100 µM (inactive)"}, {"measurement": "GI50", "setting": "SK-OV-3", "value": "> 100 µM (inactive)"}, {"measurement": "GI50", "setting": "SN12C", "value": "> 100 µM (inactive)"}, {"measurement": "GI50", "setting": "SNB-19", "value": "> 100 µM (inactive)"}, {"measurement": "GI50", "setting": "SNB-75", "value": "> 100 µM (inactive)"}, {"measurement": "GI50", "setting": "SNB-78", "value": "> 100 µM (inactive)"}, {"measurement": "GI50", "setting": "SW-620", "value": "> 100 µM (inactive)"}, {"measurement": "GI50", "setting": "U-251", "value": "> 100 µM (inactive)"}, {"measurement": "GI50", "setting": "UACC-257", "value": "> 100 µM (inactive)"}, {"measurement": "GI50", "setting": "UACC-62", "value": "> 100 µM (inactive)"}, {"measurement": "GI50", "setting": "UO-31", "value": "> 100 µM (inactive)"}]}]}
